Laboratory results as given in ChEMBL document CHEMBL4411335, “Identification and Optimization of Novel Small c-Abl Kinase Activators Using Fragment and HTS Methodologies” (J Med Chem, 2019).
Converted amounts (≈) assume the structure as drawn.

How the values were obtained:
[1] = Permeability of the compound at […] after 3 hrs by artificial membrane permeability assay; type: ADME; conditions: PAMPA; read-out: permeability
[2] = biological target: Tyrosine-protein kinase ABL1 (Homo sapiens, UniProt P00519, D382N); experiment: Displacement of Myr-GQQPGKVLGDQRRPSL(K-TAMRA)G-amide from N-terminal-truncated human c-ABL D382N mutant (46 to 534 residues) after 30 mins by fluorescence polarization binding assay
Chain of Tyrosine-protein kinase ABL1 (Homo sapiens, UniProt P00519, D382N) (P00519 as listed by the source D382N): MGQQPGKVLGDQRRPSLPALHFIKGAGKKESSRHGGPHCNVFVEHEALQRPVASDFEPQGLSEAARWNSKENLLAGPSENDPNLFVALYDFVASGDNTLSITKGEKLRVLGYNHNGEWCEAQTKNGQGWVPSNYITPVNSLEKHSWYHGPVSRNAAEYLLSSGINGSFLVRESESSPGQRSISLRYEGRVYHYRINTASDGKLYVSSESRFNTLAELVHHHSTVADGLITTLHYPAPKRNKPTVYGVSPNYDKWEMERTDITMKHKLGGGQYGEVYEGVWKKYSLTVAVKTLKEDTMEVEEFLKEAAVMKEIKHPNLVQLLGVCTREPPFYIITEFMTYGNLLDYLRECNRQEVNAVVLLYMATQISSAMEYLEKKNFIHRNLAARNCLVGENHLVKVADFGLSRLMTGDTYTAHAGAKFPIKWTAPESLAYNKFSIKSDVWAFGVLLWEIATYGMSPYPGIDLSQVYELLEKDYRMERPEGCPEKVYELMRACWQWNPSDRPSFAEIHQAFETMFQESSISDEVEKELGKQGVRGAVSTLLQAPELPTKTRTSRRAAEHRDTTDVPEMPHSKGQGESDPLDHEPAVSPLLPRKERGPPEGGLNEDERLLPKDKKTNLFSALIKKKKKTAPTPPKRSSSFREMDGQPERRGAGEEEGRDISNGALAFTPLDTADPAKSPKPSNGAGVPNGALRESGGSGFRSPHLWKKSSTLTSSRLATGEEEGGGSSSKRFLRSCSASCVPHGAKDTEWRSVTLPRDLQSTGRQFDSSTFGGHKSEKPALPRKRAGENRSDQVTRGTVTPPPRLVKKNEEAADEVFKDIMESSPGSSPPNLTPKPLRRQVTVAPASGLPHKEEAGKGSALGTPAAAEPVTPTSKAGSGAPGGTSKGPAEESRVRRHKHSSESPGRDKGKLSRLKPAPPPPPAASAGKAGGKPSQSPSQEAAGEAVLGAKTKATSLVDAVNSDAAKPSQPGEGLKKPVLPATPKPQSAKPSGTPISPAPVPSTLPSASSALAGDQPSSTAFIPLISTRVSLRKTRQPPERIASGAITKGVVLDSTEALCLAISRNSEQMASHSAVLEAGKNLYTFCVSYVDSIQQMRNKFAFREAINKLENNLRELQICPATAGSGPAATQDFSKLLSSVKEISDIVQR

[3] = biological target: T1, Tyrosine-protein kinase ABL1 (Homo sapiens, UniProt P00519); experiment: Induction of human c-ABL phosphorylation at Y245/Y412 residues in bacmam-induced HEK-MSR2 cell lysates by in-cell Western blot analysis; type: subcellular, Lysate
T1 sequence (P00519 whole entry): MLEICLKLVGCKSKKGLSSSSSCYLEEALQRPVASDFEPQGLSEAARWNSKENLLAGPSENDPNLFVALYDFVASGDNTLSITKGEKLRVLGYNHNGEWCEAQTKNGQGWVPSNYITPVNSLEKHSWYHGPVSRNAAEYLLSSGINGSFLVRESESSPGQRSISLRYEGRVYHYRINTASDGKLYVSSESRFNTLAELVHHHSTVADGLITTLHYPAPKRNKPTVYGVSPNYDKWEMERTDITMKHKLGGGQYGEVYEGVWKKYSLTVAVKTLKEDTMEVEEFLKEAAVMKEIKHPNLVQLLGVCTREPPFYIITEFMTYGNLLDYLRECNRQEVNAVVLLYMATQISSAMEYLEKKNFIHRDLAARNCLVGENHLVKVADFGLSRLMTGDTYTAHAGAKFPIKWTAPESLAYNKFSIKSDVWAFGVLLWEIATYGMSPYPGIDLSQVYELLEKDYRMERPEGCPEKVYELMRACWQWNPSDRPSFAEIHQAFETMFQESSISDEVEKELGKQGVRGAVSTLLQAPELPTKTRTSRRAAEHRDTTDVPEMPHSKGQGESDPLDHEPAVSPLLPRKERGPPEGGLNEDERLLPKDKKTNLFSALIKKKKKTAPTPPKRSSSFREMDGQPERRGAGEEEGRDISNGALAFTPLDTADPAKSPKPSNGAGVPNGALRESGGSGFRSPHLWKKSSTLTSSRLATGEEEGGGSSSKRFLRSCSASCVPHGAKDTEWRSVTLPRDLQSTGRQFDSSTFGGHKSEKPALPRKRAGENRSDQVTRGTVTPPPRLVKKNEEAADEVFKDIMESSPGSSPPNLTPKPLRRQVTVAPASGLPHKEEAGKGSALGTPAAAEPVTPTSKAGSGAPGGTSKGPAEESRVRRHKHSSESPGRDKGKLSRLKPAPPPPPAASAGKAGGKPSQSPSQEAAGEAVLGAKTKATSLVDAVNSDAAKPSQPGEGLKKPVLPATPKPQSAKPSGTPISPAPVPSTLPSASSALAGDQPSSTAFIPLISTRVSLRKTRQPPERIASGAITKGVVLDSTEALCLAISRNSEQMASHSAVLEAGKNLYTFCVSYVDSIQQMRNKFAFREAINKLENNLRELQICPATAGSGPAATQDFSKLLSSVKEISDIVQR

[4] = Kinetic solubility of the compound at pH 7.4 after 1 hr by CLND-based assay; type: physicochemical; conditions: buffer, read-out: Kinetic_solubility
[5] = biological target: T1, Tyrosine-protein kinase ABL1; experiment: Activation of full length human 6His-tagged c-Abl expressed in baculovirus expression system using abltide as substrate after 2 hrs by IMAP assay; conditions: for EC50 for c-Abl activation: read-out: pIC50 (converted)

| Structure (SMILES) | Papp at 3 h [1] | IC50 [2] | EC50 [3] | solubility kinetic at 1 h [4] | EC50 for c-Abl activation [5] | EC50 [5] |
| --- | --- | --- | --- | --- | --- | --- |
| O=C1NC(=O)C(c2cn(-c3ccccc3)nc2-c2ccc(F)cc2)N1 (configuration not stated) | 35 ×10⁻⁶ cm/s | 398 nM | 794 nM | > 395 µM |  |  |
| CC(=O)Nc1nc(-c2ccc(Cl)cc2)cs1 | 25 ×10⁻⁶ cm/s | 10000 nM |  | 1 µM (≈ 0.253 µg/mL) | 31600 nM |  |
| CC(=O)Nc1nc(-c2cccc(O)c2)cs1 | 27 ×10⁻⁶ cm/s | 12600 nM |  | 103 µM (≈ 24.1 µg/mL) | > 50100 nM |  |
| O=C(Nc1nc(-c2ccc(Cl)c(Cl)c2)cs1)c1c(F)cccc1F | < 3 ×10⁻⁶ cm/s | 316 nM | 5010 nM | 5 µM (≈ 1.93 µg/mL) | 251 nM |  |
| CS(=O)(=O)Nc1nc(-c2ccc(Cl)c(Cl)c2)cs1 | 22 ×10⁻⁶ cm/s | > 50100 nM | > 50100 nM | 429 µM (≈ 139 µg/mL) | 25100 nM |  |
| O=C(NC1=NN(c2ccc(Cl)c(Cl)c2)CC1)c1cccnn1 |  | 794 nM | > 50100 nM | 67 µM (≈ 22.5 µg/mL) | 5010 nM |  |
| Cn1cnnc1SCC(=O)Nc1nc(-c2ccc(Cl)c(Cl)c2)cs1 |  | 794 nM | 20000 nM |  |  | 10000 nM |
| Cn1ncc([N+](=O)[O-])c1C(=O)Nc1nc(-c2ccc(Cl)c(Cl)c2)cs1 | 26 ×10⁻⁶ cm/s | 200 nM | 15800 nM | < 1 µM | 31.6 nM |  |
| CC(=O)NC1=NN(c2ccc(Cl)c(Cl)c2)C[C@H]1C | 38 ×10⁻⁶ cm/s | 3980 nM | 20000 nM | 36 µM (≈ 10.3 µg/mL) |  |  |
| O=C(Nc1nc(-c2ccc(Cl)c(Cl)c2)cs1)C1CC1 | 22.7 ×10⁻⁶ cm/s | 251 nM | > 50100 nM | 3 µM (≈ 0.94 µg/mL) | 158 nM |  |
| O=C(NC1=NN(c2ccc(Cl)c(Cl)c2)CC1)c1c(F)cccc1F |  | 398 nM | 3160 nM |  | 631 nM |  |
| CC(=O)Nc1nc(-c2ccc(F)c(Cl)c2)cs1 | 9.4 ×10⁻⁶ cm/s | 2510 nM | > 50100 nM | 10 µM (≈ 2.71 µg/mL) | 39800 nM |  |
| CC(=O)Nc1nc(-c2ccc(Cl)c(Cl)c2)cs1 | 19.6 ×10⁻⁶ cm/s | 316 nM | 31600 nM | < 1 µM | 2510 nM |  |
| CC(=O)Nc1nc(-c2cccc(Cl)c2)cs1 | 34 ×10⁻⁶ cm/s | > 50100 nM |  | 2 µM (≈ 0.505 µg/mL) | 7940 nM |  |
| CC(=O)Nc1nc(-c2ccc(Cl)c(F)c2)cs1 | 35 ×10⁻⁶ cm/s | 794 nM | 50100 nM | 5 µM (≈ 1.35 µg/mL) | 3160 nM |  |
| O=C(Nc1nc(-c2ccc(Cl)c(Cl)c2)cs1)c1cccnc1 | 37 ×10⁻⁶ cm/s | 200 nM | > 50100 nM | 20 µM (≈ 7 µg/mL) | 398 nM |  |
| CC(=O)Nc1nc(-c2nc(C)no2)cs1 | 25 ×10⁻⁶ cm/s | > 50100 nM |  | 186 µM (≈ 41.7 µg/mL) | > 100000 nM |  |
| O=C(Nc1nc(-c2ccc(Cl)c(Cl)c2)cs1)c1cncs1 | 6.1 ×10⁻⁶ cm/s | 200 nM | > 50100 nM | 2 µM (≈ 0.713 µg/mL) | 501 nM |  |
| CC(=O)NC1=NN(c2ccc(Cl)c(Cl)c2)C[C@@H]1C | 42 ×10⁻⁶ cm/s | 398 nM | 631 nM | 32 µM (≈ 9.16 µg/mL) |  |  |
| CC(=O)Nc1nc(-c2ccc(Cl)c(C)c2)cs1 | 14 ×10⁻⁶ cm/s | 794 nM | > 50100 nM | 1 µM (≈ 0.267 µg/mL) | 31600 nM |  |
| N#CCC(=O)Nc1nc(-c2ccc(Cl)c(Cl)c2)cs1 | 14.2 ×10⁻⁶ cm/s | 501 nM | 5010 nM | 57 µM (≈ 17.8 µg/mL) | 1260 nM |  |
| CC(=O)NC1=NN(c2ccc(Cl)c(Cl)c2)CC1C (racemic) | 40.5 ×10⁻⁶ cm/s | 794 nM | 501 nM | 49 µM (≈ 14 µg/mL) |  |  |
